Here are results for five molecules from publication PMC11673721 (Biomolecules, 2024).

Assay [1] concerns the target T1, DtolTA (PLP-dependent transaminase of fold type IV) (Desulfobacula toluolica, UniProt K0NPP0).
T1 sequence (K0NPP0 1-286): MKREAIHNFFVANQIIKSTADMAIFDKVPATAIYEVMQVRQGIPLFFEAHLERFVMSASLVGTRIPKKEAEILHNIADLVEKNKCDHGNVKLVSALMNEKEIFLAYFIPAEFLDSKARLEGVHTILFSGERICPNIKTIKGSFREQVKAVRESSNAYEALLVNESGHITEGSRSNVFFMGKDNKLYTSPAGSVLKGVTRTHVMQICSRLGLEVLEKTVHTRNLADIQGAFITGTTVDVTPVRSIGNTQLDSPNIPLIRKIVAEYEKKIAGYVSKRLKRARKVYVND
Nature of the assay: half-reaction (deamination) kinetics, absorbance at […] nm; kmax/KD^app. In kind it is biochemical. Also on record: gene dat; (His)6-tagged DtolTA.

The target of assay [2] is T1, DtolTA (PLP-dependent transaminase of fold type IV). Kind of assay: half-reaction (deamination) kinetics, absorbance at […] nm; kmax/KD^app at pH […]. In kind it is biochemical. Further details: gene dat; (His)6-tagged DtolTA.
In assay [3] the target is T2, DtolTA (PLP-dependent transaminase of fold type IV) (Desulfobacula toluolica, UniProt K0NPP0, R144I).
T2 construct: gene dat; (His)6-tagged DtolTA variant
Nature of the assay: half-reaction (deamination) kinetics, absorbance at […] nm; kmax/KD^app. In kind it is biochemical.

Assay [4] has as its target T3, DtolTA (PLP-dependent transaminase of fold type IV) (Desulfobacula toluolica, UniProt K0NPP0, K91A).
T3 construct: gene dat; (His)6-tagged DtolTA variant
Kind of assay: half-reaction kinetics of variant apoenzyme in the presence of PLP; kmax/KD^app at pH […]. In kind it is biochemical.

The target of assay [5] is T1, DtolTA (PLP-dependent transaminase of fold type IV). Nature of the assay: crystal structure (9J0V […] Å; also 9J0U […] Å); tyrosine fluorescence quenching titration of apoenzyme. In kind it is binding. Also on record: gene dat; full length, 286 a.a; (His)6-tagged for Kd, tag removed for crystals.
Assay [6] addresses T2, DtolTA (PLP-dependent transaminase of fold type IV). Kind of assay: tyrosine fluorescence quenching titration of apoenzyme. Format: binding. From the text: tyrosine fluorescence quenching titration of apoenzyme on DtolTA (PLP-dependent transaminase of fold type IV) | apparent dissociation constant Kd(PLP) for the R144I holoenzyme were similar to those of WT
The target of assay [7] is TA from Haliscomenobacter hydrossis (Haliscomenobacter hydrossis). Nature of the assay: SEC; gel filtration of the purified enzyme; column and buffer not given.

For `C[C@@H](N)c1ccccc1` [(R)-1-phenylethylamine], in assay [1], the “half-reaction (deamination) kinetics, absorbance at 411 nm; kmax/KD^app” value turned out to be 0.015 ± 0.005 M⁻¹ s⁻¹.
In the case of `C[C@@H](N)C(=O)O` [D-alanine], the “half-reaction (deamination) kinetics, absorbance at 411 nm; kmax/KD^app at pH 8.” value in assay [2] is recorded as 37 ± 1 M^−1s^−1. Besides, in assay [3], the “half-reaction (deamination) kinetics, absorbance at 411 nm; kmax/KD^app” value was 29 ± 1 M⁻¹ s⁻¹. Besides, in assay [4], the “half-reaction kinetics of variant apoenzyme in the presence of PLP; kmax/KD^app” value amounted to 2.4 ± 0.7 M⁻¹ s⁻¹.
In the case of `N[C@H](CCC(=O)O)C(=O)O` [D-glutamate], the “half-reaction (deamination) kinetics, absorbance at 411 nm; kmax/KD^app” value in assay [1] stood at 0.020 ± 0.001 M⁻¹ s⁻¹.
As a reminder, the Kd is the free concentration of one partner at which half of the binding sites on the other are occupied at equilibrium, for simple one-to-one binding. As for `Cc1ncc(COP(=O)(O)O)c(C=O)c1O` [pyridoxal-5′-phosphate], the Kd in assay [5] was determined as 30 ± 4 µM; in assay [6], 43 ± 2 µM.
By stoichiometry N is commonly meant a count of units in the complex or per binding partner. Turning to “TA from Haliscomenobacter hydrossis (enzyme)”, the stoichiometry N in assay [7] came to 2.
